Laboratory results: patent US20230414599A1, “NICOTINAMIDE, NICOTINAMIDE PRECURSORS AND NICOTINAMIDE METABOLITES AND COMPOSITIONS THEREOF FOR REDUCING THE TIME TO RESOLUTION OF SYMPTOMS IN PATIENTS WITH COVID-19 AND OTHER VIRAL INFECTIONS” (CONARIS RESEARCH INSTITUTE AG, priority 2020, published 2023)
Where two headings read alike, the source gives them in different places.

System: COVID-19
Conditions: for Cough complaint scale, mean / Cough complaint scale, median / Change in cough complaint scale, mean / Change in cough complaint scale, median: n = 36; for Ability to perform normal activities, complaint scale 0-6, mean change / Ability to perform normal activities, complaint scale 0-6, median change: week 4 - baseline
[1] = baseline, BMI ≥30.0 or type 2 diabetes, n = 27
[2] = baseline, current or former smokers, n = 75
[3] = baseline, patients with cough and fever, n = 15
[4] = baseline, patients with cough, n = 106
[5] = baseline, patients with fever, n = 21
[6] = baseline, ≥1 risk factor for severe COVID-19, n = 117
[7] = patients with cough and taste loss, baseline
[8] = patients with cough and taste loss, week 2
[9] = patients with cough and taste loss, week 2 - baseline
[10] = patients with cough and taste loss, week 4
[11] = patients with cough and taste loss, week 6
[12] = patients with cough and taste loss, week 6 - baseline
[13] = patients with cough, fever and taste loss, n = 6, week 4 compared to baseline
[14] = patients with cough, fever and taste loss, n = 6, week 6 compared to baseline
[15] = patients with fever and taste loss, n = 8, week 4 compared to baseline
[16] = patients with fever and taste loss, n = 8, week 6 compared to baseline
[17] = week 2 - baseline, BMI ≥30.0 or type 2 diabetes, n = 27, 500 mg IR + 500 mg CICR-NAM daily
[18] = week 2, BMI ≥30.0 or type 2 diabetes, n = 27, 500 mg IR + 500 mg CICR-NAM daily
[19] = week 2, current or former smokers, n = 75, 500 mg IR + 500 mg CICR-NAM daily
[20] = week 2, patients with cough and fever, n = 15, 500 mg IR + 500 mg CICR-NAM daily
[21] = week 2, patients with cough, n = 106, 500 mg IR + 500 mg CICR-NAM daily
[22] = week 2, patients with fever, n = 21, 500 mg IR + 500 mg CICR-NAM daily
[23] = week 2, ≥1 risk factor for severe COVID-19, n = 117, 500 mg IR + 500 mg CICR-NAM daily
[24] = BMI ≥30.0 or type 2 diabetes, n = 27, 500 mg IR + 500 mg CICR-NAM daily
[25] = patients with cough and fever, n = 15, 500 mg IR + 500 mg CICR-NAM daily
[26] = patients with cough, n = 106, 500 mg IR + 500 mg CICR-NAM daily
[27] = patients with fever, n = 21, 500 mg IR + 500 mg CICR-NAM daily
[28] = week 4, BMI ≥30.0 or type 2 diabetes, n = 27, 500 mg IR + 500 mg CICR-NAM daily
[29] = week 4, current or former smokers, n = 75, 500 mg IR + 500 mg CICR-NAM daily

Structure (SMILES): NC(=O)c1cccnc1 [Nicotinamide, nicotinamide]
- Ability to perform normal activities, complaint scale 0-6, mean [1]: 3.037
- Ability to perform normal activities, complaint scale 0-6, median [1]: 3.000
- Cough complaint scale 0-6, mean [1]: 3.000
- Cough complaint scale 0-6, median [1]: 3.000
- Ability to perform normal activities, complaint scale 0-6, mean [2]: 3.373
- Ability to perform normal activities, complaint scale 0-6, median [2]: 4.000
- Ability to perform normal activities, complaint scale 0-6, mean [3]: 4.000
- Ability to perform normal activities, complaint scale 0-6, median [3]: 4.0
- Ability to perform normal activities, complaint scale 0-6, mean [4]: 2.915
- Ability to perform normal activities, complaint scale 0-6, median [4]: 3.0
- Ability to perform normal activities, complaint scale 0-6, mean [5]: 4.000
- Ability to perform normal activities, complaint scale 0-6, median [5]: 4.0
- Ability to perform normal activities, complaint scale 0-6, mean [6]: 3.188
- Ability to perform normal activities, complaint scale 0-6, median [6]: 3.0
- Cough complaint scale vs placebo (Table 7.1) (patients with cough and taste loss): significant difference found in favour of placebo
- Cough complaint scale, mean [7]: 2.194
- Cough complaint scale, median [7]: 2.0
- Cough complaint scale, mean [8]: 0.917
- Cough complaint scale, median [8]: 0.0
- Change in cough complaint scale, mean [9]: −1.287
- Change in cough complaint scale, median [9]: −1.0
- Cough complaint scale, mean [10]: 0.639
- Cough complaint scale, median [10]: 0.0
- Cough complaint scale, mean [11]: 0.417
- Cough complaint scale, median [11]: 0.0
- Change in cough complaint scale, mean [12]: −1.778
- Change in cough complaint scale, median [12]: −2.0
- Change in fatigue: constant, number of patients [13]: 1
- Change in fatigue: improved, % [13]: 83.33%
- Change in fatigue: improved, number of patients [13]: 5
- Change in fatigue: worse, % [13]: 0.00%
- Change in fatigue: worse, number of patients [13]: 0
- Change in fatigue: constant, number of patients [14]: 2
- Change in fatigue: improved, % [14]: 66.67%
- Change in fatigue: improved, number of patients [14]: 4
- Change in fatigue: worse, % [14]: 0.00%
- Change in fatigue: worse, number of patients [14]: 0
- Change in fatigue: constant, number of patients [15]: 1
- Change in fatigue: improved, % [15]: 87.50%
- Change in fatigue: improved, number of patients [15]: 7
- Change in fatigue: worse, % [15]: 0.00%
- Change in fatigue: worse, number of patients [15]: 0
- Change in fatigue: constant, number of patients [16]: 2
- Change in fatigue: improved, % [16]: 75.00%
- Change in fatigue: improved, number of patients [16]: 6
- Change in fatigue: worse, % [16]: 0.00%
- Change in fatigue: worse, number of patients [16]: 0
- Effect on the ability to perform normal activities, fatigue and reduced physical performance (patients with ≥1 risk factor for severe COVID-19, futility analysis): biologically and statistically significant positive effect
- Cough complaint scale 0-6, mean change [17]: −1.815
- Cough complaint scale 0-6, median change [17]: −2.000
- Ability to perform normal activities, complaint scale 0-6, mean [18]: 1.556
- Ability to perform normal activities, complaint scale 0-6, median [18]: 1.000
- Cough complaint scale 0-6, mean [18]: 1.185
- Cough complaint scale 0-6, median [18]: 1.000
- Ability to perform normal activities, complaint scale 0-6, mean [19]: 1.093
- Ability to perform normal activities, complaint scale 0-6, median [19]: 0.000
- Presence of cough constant vs baseline, % of patients [19]: 60.00%
- Presence of cough constant vs baseline, patients [19]: 45
- Presence of cough improved vs baseline, % of patients [19]: 36.00%
- Presence of cough improved vs baseline, patients [19]: 27
- Presence of cough worse vs baseline, % of patients [19]: 4.00%
- Presence of cough worse vs baseline, patients [19]: 3
- Ability to perform normal activities, complaint scale 0-6, mean [20]: 1.733
- Ability to perform normal activities, complaint scale 0-6, median [20]: 2.0
- Ability to perform normal activities, complaint scale 0-6, mean [21]: 1.226
- Ability to perform normal activities, complaint scale 0-6, median [21]: 1.0
- Ability to perform normal activities, complaint scale 0-6, mean [22]: 1.381
- Ability to perform normal activities, complaint scale 0-6, median [22]: 1.0
- Ability to perform normal activities, complaint scale 0-6, mean [23]: 1.299
- Ability to perform normal activities, complaint scale 0-6, median [23]: 1.0
- Fatigue constant vs baseline, % of patients [23]: 57.26%
- Fatigue constant vs baseline, patients [23]: 67
- Fatigue improved vs baseline, % of patients [23]: 40.17%
- Fatigue improved vs baseline, patients [23]: 47
- Fatigue worse vs baseline, % of patients [23]: 2.56%
- Fatigue worse vs baseline, patients [23]: 3
- Ability to perform normal activities, complaint scale 0-6, mean change [24]: −1.667
- Ability to perform normal activities, complaint scale 0-6, median change [24]: −2.000
- Ability to perform normal activities, complaint scale 0-6, mean change [25]: −2.800
- Ability to perform normal activities, complaint scale 0-6, median change [25]: −3.0
- Ability to perform normal activities, complaint scale 0-6, mean change [26]: −2.179
- Ability to perform normal activities, complaint scale 0-6, median change [26]: −2.0
- Ability to perform normal activities, complaint scale 0-6, mean change [27]: −2.952
- Ability to perform normal activities, complaint scale 0-6, median change [27]: −3.0
- Ability to perform normal activities constant vs baseline, % of patients [28]: 14.81%
- Ability to perform normal activities constant vs baseline, patients [28]: 4
- Ability to perform normal activities improved vs baseline, % of patients [28]: 74.07%
- Ability to perform normal activities improved vs baseline, patients [28]: 20
- Ability to perform normal activities worse vs baseline, % of patients [28]: 11.11%
- Ability to perform normal activities worse vs baseline, patients [28]: 3
- Ability to perform normal activities, complaint scale 0-6, mean [28]: 1.370
- Ability to perform normal activities, complaint scale 0-6, median [28]: 1.000
- Cough complaint scale 0-6, mean [28]: 0.815
- Cough complaint scale 0-6, median [28]: 0.000
- Ability to perform normal activities constant vs baseline, % of patients [29]: 9.33%
- Ability to perform normal activities constant vs baseline, patients [29]: 7
- Ability to perform normal activities improved vs baseline, % of patients [29]: 84.00%
- Ability to perform normal activities improved vs baseline, patients [29]: 63
